Reference: US11945790B2 (ImmunoMolecular Therapeutics, Inc., priority 2020, dated 2024)

Target: HLA-DQ2 (Homo sapiens, UniProt P01909+P01920)
Test: Inhibition of IL-2 secretion by TCR transductants stimulated by α-gliadin peptides presented by HLA-DQ2 expressing K562 cells (ELISA)
Assay type: cell-based
Details: tested as trans racemate unless otherwise noted, lines naming several Examples = stereoisomer mixture of those Examples; for % Inh at 200 uM: inhibition of IL-2 secretion at 200 uM
Description: Three commercially available analogues of the DQ2 binding molecules of the invention were tested for their ability to inhibit stimulation of T cell receptor (TCR) transductants in the presence of HLA-DQ2 expressing cells presenting known α-gliadin epitopes.
Using a previously published in vitro assay (Ostrov D, et al. Methyldopa blocks MHC class II binding to disease specific antigens in autoimmune diabetes. J Clin Invest. 2018:128 (5)) the ability of these DQ2 binding analogues to inhibit interleukin-2 (IL-2) secretion by TCR transductants stimulated by α-gliadin peptides presented by HLA-DQ2 was determined. Individual TCR transductants (recognizing a I-gliadin or a II-gliadin) were cultured with a gliadin peptide plus the small molecule analogues in the presence of HLA-DQ2 expressing K562 cells serving as antigen presenting cells. TCR transductants cultured with no gliadin peptide served as the negative control, and incubation with an anti-CD3 antibody (eBioscience; clone 2C11) served as a positive control for the TCR transductant. Secreted IL-2 in the culture supernatant was measured using a highly sensitive enzyme-linked immunosorbent assay (ELISA). […] Assays for effects on cell viability and for specificity, assayed in the absence of gliadin peptide or in the presence of a stimulating anti-CD3 antibody, were performed. Unless otherwise noted, the stereochemistry shown below represents the relative configuration. Further, unless otherwise noted, compounds were tested as the trans racemate.

Chain of HLA-DQ2 (P01920 33-261 limits assumed, other chains not shown): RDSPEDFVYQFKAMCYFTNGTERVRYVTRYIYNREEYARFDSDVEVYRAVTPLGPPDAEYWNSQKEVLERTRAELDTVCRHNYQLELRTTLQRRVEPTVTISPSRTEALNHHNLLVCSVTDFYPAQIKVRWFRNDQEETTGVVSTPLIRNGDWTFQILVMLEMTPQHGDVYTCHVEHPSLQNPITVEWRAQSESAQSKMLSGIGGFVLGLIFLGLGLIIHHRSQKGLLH

Structure (SMILES) | % Inh at 200 uM | EC50 (inhibition of IL-2 secretion, dose-response)
CCCCSCC(=O)N1CCN(C(=O)[C@@H]2C[C@H]2c2ccccc2)CC1 (relative stereo) [Example 47, 2-(Butylthio)-1-(4-(trans-2-phenylcyclopropane-carbonyl)piperazin-1-yl)ethanone] | B (B=50-74%) | 
COCC(=O)N1CCN(C(=O)[C@@H]2C[C@H]2c2ccccc2)CC1 (relative stereo) [Example 42, [2-Methoxy-1-(4-(trans-2-phenylcyclopropane-1-carbonyl)piperazin-1-yl)ethan-1-one]] | C (C=25-49%) | 
O=C(CSC1CCCCC1)N1CCN(C(=O)[C@@H]2C[C@H]2c2ccccc2)CC1 [Example 41, 2-(Cyclohexylthio)-1-(4-((1R, 2R)-2-phenylcyclopropane-1-carbonyl)piperazin-1-yl) ethan-1-one] | B (B=50-74%) | 
O=C(Cc1cccs1)N1CCN(C(=O)C2CC2c2ccc3c(c2)OCO3)CC1 (stereo not shown) [Example 24] | A (A=≥75%) | 
O=C(CCS(=O)(=O)c1ccccc1)N1CCN(C(=O)C2CC2c2ccc3c(c2)OCO3)CC1 (stereo not shown) [Example 16] | A (A=≥75%) | 
CSc1ccccc1C(=O)N1CCN(C(=O)C2CC2c2ccc3c(c2)OCO3)CC1 (stereo not shown) [Example 19] | C (C=25-49%) | 
O=C(CSc1ccc(F)cc1)N1CCN(C(=O)C2CC2c2ccc3c(c2)OCO3)CC1 (stereo not shown) [Example 5] | B (B=50-74%) | 
O=C(COC1CCC1)N1CCN(C(=O)[C@@H]2C[C@H]2c2ccccc2)CC1 (racemic) [Example 39, 2-Cyclobutoxy-1-(4-(trans-2-phenylcyclopropanecarbonyl)piperazin-1-yl) ethanone] | B (B=50-74%) | 
O=C(CSC1CCCC1)N1CCN(C(=O)[C@H]2C[C@@H]2c2cccc(O)c2)CC1 [Example 29] | B (B=50-74%) | 
O=C(CSC1CCCC1)N1CCN(C(=O)[C@H]2C[C@@H]2c2ccc(O)cc2)CC1 [Example 30] | D (D=0-24%) | 
N#Cc1cccc([C@H]2C[C@@H]2C(=O)N2CCN(C(=O)CSC3CCCC3)CC2)c1 [Example 31] | C (C=25-49%) | 
O=C(CSC1CCCC1)N1CCN(C(=O)[C@H]2C[C@@H]2c2ccccc2)CC1 [Example 13, 2-(Cyclopentylthio)-1-(4-((1S,2S)-2-phenylcyclopropanecarbonyl)piperazin-1-yl)ethanone] | A (A=≥75%) | 
Cc1cc(C(=O)N2CCN(C(=O)C3CC3c3ccc4c(c3)OCO4)CC2)c(C)o1 (stereo not shown) [Example 8] | A (A=≥75%) | 
CCOc1ccccc1C(=O)N1CCN(C(=O)C2CC2c2ccc3c(c2)OCO3)CC1 (stereo not shown) [Example 17] | C (C=25-49%) | 
CS(=O)(=O)N1CCC(C(=O)N2CCN(C(=O)C3CC3c3ccc4c(c3)OCO4)CC2)CC1 (stereo not shown) [Example 26] | C (C=25-49%) | 
O=C(C1CCCC1)N1CCN(C(=O)C2CC2c2ccc3c(c2)OCO3)CC1 (stereo not shown) [Example 25] | A (A=≥75%) | 
O=C(COC1CCCCC1)N1CCN(C(=O)C2CC2c2ccccc2)CC1 (stereo not drawn) [Example 40, 2-(Cyclohexyloxy)-1-(4-((trans-2-phenylcyclopropanecarbonyl)-piperazin-1-yl)ethanone] | B (B=50-74%) | 
COc1ccc([C@H]2C[C@@H]2C(=O)N2CCN(C(=O)CSC3CCCC3)CC2)cc1 [Example 28] | B (B=50-74%) | 
CCCCOCC(=O)N1CCN(C(=O)[C@@H]2C[C@H]2c2ccccc2)CC1 (relative stereo) [Example 46, 2-Butoxy-1-(4-(trans-2-phenylcyclopropanecarbonyl)piperazin-1-yl) ethanone] | B (B=50-74%) | 
O=C(c1ccccc1C(F)(F)F)N1CCN(C(=O)C2CC2c2ccc3c(c2)OCO3)CC1 (stereo not shown) [Example 21] | C (C=25-49%) | 
CN(C)c1cccc(C(=O)N2CCN(C(=O)C3CC3c3ccc4c(c3)OCO4)CC2)c1 (stereo not shown) [Example 20] | B (B=50-74%) | 

Next, values leading:

% Inh at 200 uM | EC50 (inhibition of IL-2 secretion, dose-response) | Structure (SMILES)
D (D=0-24%) |  | O=C(O)CCSCC(=O)N1CCN(C(=O)[C@@H]2C[C@H]2c2ccccc2)CC1 [Example 112]
C (C=25-49%) |  | NC(=O)c1ccc(OCC(=O)N2CCN(C(=O)[C@@H]3C[C@H]3c3ccccc3)CC2)cc1 [Example 89]
B (B=50-74%) |  | O=C(CSc1ccccc1O)N1CCN(C(=O)[C@@H]2C[C@H]2c2ccccc2)CC1 [Example 88]
C (C=25-49%) |  | COC(=O)c1ccccc1OCC(=O)N1CCN(C(=O)[C@@H]2C[C@H]2c2ccccc2)CC1 [Example 100]
B (B=50-74%) |  | CC(C)c1ccc(SCC(=O)N2CCN(C(=O)[C@@H]3C[C@H]3c3ccccc3)CC2)cc1 (relative stereo) [Example 54, 2-((4-Isopropylphenyl)thio)-1-(4-(trans-2-phenylcyclopropane-1-carbonyl)piperazin-1-yl) ethan-1-one]
A (A=≥75%) |  | COC(=O)c1cccc(OCC(=O)N2CCN(C(=O)[C@@H]3C[C@H]3c3ccccc3)CC2)c1 [Example 101]
C (C=25-49%) |  | O=CNc1cccc(OCC(=O)N2CCN(C(=O)[C@@H]3C[C@H]3c3ccccc3)CC2)c1 [Example 94]
D (D=0-24%) |  | O=C(O)c1cccc(OCC(=O)N2CCN(C(=O)[C@@H]3C[C@H]3c3ccccc3)CC2)c1 [Example 107]
C (C=25-49%) |  | O=C(COc1ccc(O)cc1)N1CCN(C(=O)[C@@H]2C[C@H]2c2ccccc2)CC1 [Example 95]
C (C=25-49%) |  | O=C(CSc1ccccc1)N1CCN(C(=O)[C@@H]2C[C@H]2c2ccccc2)CC1 (relative stereo) [Example 49, 1-(4-(Trans-2-phenylcyclopropane-1-carbonyl)piperazin-1-yl)-2-(phenylthio) ethan-1-one]
A (A=≥75%) |  | O=C(CSc1ccccc1F)N1CCN(C(=O)[C@@H]2C[C@H]2c2ccccc2)CC1 (relative stereo) [Example 58, 2-((2-Fluorophenyl)thio)-1-(4-(trans-2-phenylcyclopropane-1-carbonyl)piperazin-1-yl) ethan-1-one]
C (C=25-49%) |  | CC1(c2ccccc2O)CC1C(=O)N1CCN(C(=O)CSC2CCCC2)CC1 (stereo not shown) [Example 67]
A (A=≥75%) |  | Cc1cc(Cl)ccc1SCC(=O)N1CCN(C(=O)[C@@H]2C[C@H]2c2ccccc2)CC1 (relative stereo) [Example 72, 2-((4-Chloro-2-methylphenyl)thio)-1-(4-(trans-2-phenylcyclo-propanecarbonyl)piperazin-1-yl) ethanone]
D (D=0-24%) |  | O=C(O)CCCNCC(=O)N1CCN(C(=O)[C@@H]2C[C@H]2c2ccccc2)CC1 [Example 113]
D (D=0-24%) |  | O=C(O)CCOCC(=O)N1CCN(C(=O)[C@@H]2C[C@H]2c2ccccc2)CC1 [Example 110]
B (B=50-74%) |  | O=C(COC1CCCC1)N1CCN(C(=O)[C@@H]2C[C@H]2c2ccccc2)CC1 [Example 64]
C (C=25-49%) |  | O=C(CSc1ccc(O)cc1)N1CCN(C(=O)[C@@H]2C[C@H]2c2ccccc2)CC1 [Example 76]
B (B=50-74%) |  | O=C(C[S+]([O-])C1CCCC1)N1CCN(C(=O)C2C[C@@H]2c2ccccc2)CC1 (stereo partly shown) [Example 80]
C (C=25-49%) |  | O=C(CSc1cccc(O)c1)N1CCN(C(=O)[C@@H]2C[C@H]2c2ccccc2)CC1 [Example 87]
B (B=50-74%) |  | O=C(COc1ccccc1O)N1CCN(C(=O)[C@@H]2C[C@H]2c2ccccc2)CC1 [Example 105]
B (B=50-74%) |  | O=C(COc1cccc(F)c1)N1CCN(C(=O)[C@@H]2C[C@H]2c2ccccc2)CC1 [Example 99]
A (A=≥75%) | 50 to 100 µM | COC(=O)c1cccc(OCC(=O)N2CCN(C(=O)[C@@H]3C[C@H]3c3ccccc3)CC2)c1 (relative stereo) [Example 109]
B (B=50-74%) |  | O=C(O)c1ccc(SCC(=O)N2CCN(C(=O)[C@@H]3C[C@H]3c3ccccc3)CC2)cc1 [Example 104]
B (B=50-74%) |  | NC(=O)c1ccccc1OCC(=O)N1CCN(C(=O)[C@@H]2C[C@H]2c2ccccc2)CC1 [Example 90]
A (A=≥75%) |  | O=C(COC1CCCCCC1)N1CCN(C(=O)[C@@H]2C[C@H]2c2ccccc2)CC1 (relative stereo) [Example 52, 2-(Cycloheptyloxy)-1-(4-(trans-2-phenylcyclopropane-carbonyl)piperazin-1-yl)ethanone]
D (D=0-24%) |  | O=C(CN1CCCC1=O)N1CCN(C(=O)[C@@H]2C[C@H]2c2ccccc2)CC1 [Example 115]
C (C=25-49%) |  | O=C(O)c1ccccc1OCC(=O)N1CCN(C(=O)[C@@H]2C[C@H]2c2ccccc2)CC1 [Example 97]
B (B=50-74%) |  | Cc1ccc(SCC(=O)N2CCN(C(=O)[C@@H]3C[C@H]3c3ccccc3)CC2)cc1C (relative stereo) [Example 56, 2-((3,4-Dimethylphenyl)thio)-1-(4-(trans-2-phenylcyclopropanecarbonyl)piperazin-1-yl) ethanone]
B (B=50-74%) |  | O=CNc1ccccc1OCC(=O)N1CCN(C(=O)[C@@H]2C[C@H]2c2ccccc2)CC1 [Example 93]
B (B=50-74%) |  | COc1ccccc1SCC(=O)N1CCN(C(=O)[C@@H]2C[C@H]2c2ccccc2)CC1 [Example 63]
